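Assay format: 96-well plates, 48-hour exposure. At the GI50, growth is halved. TGI denotes the concentration required for complete inhibition of growth.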
Experiments:
Assay in all cases: NCI tumour cell line growth inhibition, 48 h
NCI-H522 lung = tested on: NCI-H522 lung
HT29 colon = tested on: HT29 colon
MOLT-4 leukemia = tested on: MOLT-4 leukemia
HOP-92 NSCLC = tested on: HOP-92 NSCLC
DU-145 prostate = tested on: DU-145 prostate
SK-MEL-28 melanoma = tested on: SK-MEL-28 melanoma
MDA-MB-231 breast = tested on: MDA-MB-231 breast
EKVX NSCLC = tested on: EKVX NSCLC
SR leukemia = tested on: SR leukemia
NCI-H460 lung = tested on: NCI-H460 lung
HL-60(TB) leukemia = tested on: HL-60(TB) leukemia
BT-549 breast = tested on: BT-549 breast
HS 578T breast = tested on: HS 578T breast
SK-OV-3 ovarian = tested on: SK-OV-3 ovarian
SW-620 colon = tested on: SW-620 colon
U251 CNS = tested on: U251 CNS
SK-MEL-5 melanoma = tested on: SK-MEL-5 melanoma
SF-539 CNS = tested on: SF-539 CNS
ACHN renal = tested on: ACHN renal
SN12C renal = tested on: SN12C renal
T-47D breast = tested on: T-47D breast
TK-10 renal = tested on: TK-10 renal
IGROV1 ovarian = tested on: IGROV1 ovarian
PC-3 prostate = tested on: PC-3 prostate
OVCAR-3 ovarian = tested on: OVCAR-3 ovarian
SNB-75 CNS = tested on: SNB-75 CNS
M14 melanoma = tested on: M14 melanoma
OVCAR-8 ovarian = tested on: OVCAR-8 ovarian
KM12 colon = tested on: KM12 colon
MCF7 breast = tested on: MCF7 breast
CCRF-CEM leukemia = tested on: CCRF-CEM leukemia
HCC-2998 colon = tested on: HCC-2998 colon
NCI/ADR-RES ovarian = tested on: NCI/ADR-RES ovarian
NCI-H23 lung = tested on: NCI-H23 lung
A498 renal = tested on: A498 renal
SF-268 CNS = tested on: SF-268 CNS
UACC-257 melanoma = tested on: UACC-257 melanoma
SNB-19 CNS = tested on: SNB-19 CNS
RXF 393 renal = tested on: RXF 393 renal
UO-31 renal = tested on: UO-31 renal
NCI-H226 lung = tested on: NCI-H226 lung
MDA-MB-435 = tested on: MDA-MB-435
RPMI-8226 leukemia = tested on: RPMI-8226 leukemia
MALME-3M melanoma = tested on: MALME-3M melanoma
A549 NSCLC = tested on: A549 NSCLC
CAKI-1 renal = tested on: CAKI-1 renal
HCT-116 colon = tested on: HCT-116 colon
UACC-62 melanoma = tested on: UACC-62 melanoma
HOP-62 NSCLC = tested on: HOP-62 NSCLC
COLO 205 colon = tested on: COLO 205 colon
LOX IMVI melanoma = tested on: LOX IMVI melanoma
OVCAR-5 ovarian = tested on: OVCAR-5 ovarian
786-0 renal = tested on: 786-0 renal
SK-MEL-2 melanoma = tested on: SK-MEL-2 melanoma
OVCAR-4 ovarian = tested on: OVCAR-4 ovarian
HCT-15 colon = tested on: HCT-15 colon

For `COc1cc(/C=C\c2cc(OC)c(OC)c(OC)c2)cc(NC(=O)/C=C/c2cc(OC)c(OC)c(OC)c2)c1OC`, the GI50 (NCI-H522 lung) was 2.73 µM, the TGI (NCI-H522 lung) was > 100 µM and the GI50 (HT29 colon) was 3.87 µM. The TGI (HT29 colon) was > 100 µM, the GI50 (MOLT-4 leukemia) was 3.15 µM and the TGI (MOLT-4 leukemia) was > 100 µM. For the same molecule, the GI50 (HOP-92 NSCLC) was 4.68 µM, the TGI (HOP-92 NSCLC) was > 100 µM and the GI50 (DU-145 prostate) was > 100 µM. The TGI (DU-145 prostate) was > 100 µM, the GI50 (SK-MEL-28 melanoma) was 3.51 µM and the TGI (SK-MEL-28 melanoma) was > 100 µM. The GI50 (MDA-MB-231 breast) was 5.43 µM, the TGI (MDA-MB-231 breast) was > 100 µM and the GI50 (EKVX NSCLC) was 15.7 µM. The TGI (EKVX NSCLC) was > 100 µM, the GI50 (SR leukemia) was 0.23 µM and the TGI (SR leukemia) was > 100 µM. The GI50 (NCI-H460 lung) was 5.39 µM, the TGI (NCI-H460 lung) was > 100 µM and the GI50 (HL-60(TB) leukemia) was 0.509 µM. For the same molecule, the TGI (HL-60(TB) leukemia) was 4.46 µM, the GI50 (BT-549 breast) was 2.92 µM and the TGI (BT-549 breast) was > 100 µM. The GI50 (HS 578T breast) was > 100 µM, the TGI (HS 578T breast) was > 100 µM and the GI50 (SK-OV-3 ovarian) was 6.62 µM. The TGI (SK-OV-3 ovarian) was > 100 µM, the GI50 (SW-620 colon) was 5.89 µM and the TGI (SW-620 colon) was > 100 µM. For the same molecule, the GI50 (U251 CNS) was 6.71 µM, the TGI (U251 CNS) was > 100 µM and the GI50 (SK-MEL-5 melanoma) was 1.66 µM. For the same molecule, the TGI (SK-MEL-5 melanoma) was 3.97 µM, the GI50 (SF-539 CNS) was 7.58 µM and the TGI (SF-539 CNS) was > 100 µM. For the same molecule, the GI50 (ACHN renal) was 8.38 µM, the TGI (ACHN renal) was > 100 µM and the GI50 (SN12C renal) was 27.6 µM. The TGI (SN12C renal) was > 100 µM, the GI50 (T-47D breast) was 3.11 µM and the TGI (T-47D breast) was > 100 µM. The GI50 (TK-10 renal) was 6.72 µM, the TGI (TK-10 renal) was > 100 µM and the GI50 (IGROV1 ovarian) was 6.61 µM. For the same molecule, the TGI (IGROV1 ovarian) was > 100 µM, the GI50 (PC-3 prostate) was 3.02 µM and the TGI (PC-3 prostate) was > 100 µM. For the same molecule, the GI50 (OVCAR-3 ovarian) was 10.8 µM, the TGI (OVCAR-3 ovarian) was > 100 µM and the GI50 (SNB-75 CNS) was 1.82 µM. For the same molecule, the TGI (SNB-75 CNS) was > 100 µM, the GI50 (M14 melanoma) was 3.78 µM and the TGI (M14 melanoma) was > 100 µM. For the same molecule, the GI50 (OVCAR-8 ovarian) was 6.68 µM, the TGI (OVCAR-8 ovarian) was > 100 µM and the GI50 (KM12 colon) was 3.42 µM. The TGI (KM12 colon) was > 100 µM, the GI50 (MCF7 breast) was 3.49 µM and the TGI (MCF7 breast) was > 100 µM. For the same molecule, the GI50 (CCRF-CEM leukemia) was 2.67 µM, the TGI (CCRF-CEM leukemia) was > 100 µM and the GI50 (HCC-2998 colon) was > 100 µM. For the same molecule, the TGI (HCC-2998 colon) was > 100 µM, the GI50 (NCI/ADR-RES ovarian) was 2.77 µM and the TGI (NCI/ADR-RES ovarian) was > 100 µM. The GI50 (NCI-H23 lung) was 5.27 µM, the TGI (NCI-H23 lung) was > 100 µM and the GI50 (A498 renal) was 5.21 µM. For the same molecule, the TGI (A498 renal) was > 100 µM, the GI50 (SF-268 CNS) was > 100 µM and the TGI (SF-268 CNS) was > 100 µM. The GI50 (UACC-257 melanoma) was 10.1 µM, the TGI (UACC-257 melanoma) was > 100 µM and the GI50 (SNB-19 CNS) was 48.6 µM. The TGI (SNB-19 CNS) was > 100 µM, the GI50 (RXF 393 renal) was 4.77 µM and the TGI (RXF 393 renal) was > 100 µM. For the same molecule, the GI50 (UO-31 renal) was 1.09 µM, the TGI (UO-31 renal) was > 100 µM and the GI50 (NCI-H226 lung) was 50 µM. The TGI (NCI-H226 lung) was > 100 µM, the GI50 (MDA-MB-435) was 1.54 µM and the TGI (MDA-MB-435) was 4.84 µM. The GI50 (RPMI-8226 leukemia) was 1.36 µM, the TGI (RPMI-8226 leukemia) was > 100 µM and the GI50 (MALME-3M melanoma) was 3.34 µM. The TGI (MALME-3M melanoma) was > 100 µM, the GI50 (A549 NSCLC) was 4.49 µM and the TGI (A549 NSCLC) was > 100 µM. The GI50 (CAKI-1 renal) was 2.8 µM, the TGI (CAKI-1 renal) was > 100 µM and the GI50 (HCT-116 colon) was 4.57 µM. The TGI (HCT-116 colon) was > 100 µM, the GI50 (UACC-62 melanoma) was 2.19 µM and the TGI (UACC-62 melanoma) was > 100 µM. The GI50 (HOP-62 NSCLC) was 7.21 µM, the TGI (HOP-62 NSCLC) was > 100 µM and the GI50 (COLO 205 colon) was 4.2 µM. For the same molecule, the TGI (COLO 205 colon) was > 100 µM, the GI50 (LOX IMVI melanoma) was 4.51 µM and the TGI (LOX IMVI melanoma) was > 100 µM. For the same molecule, the GI50 (OVCAR-5 ovarian) was > 100 µM, the TGI (OVCAR-5 ovarian) was > 100 µM and the GI50 (786-0 renal) was 6.22 µM. For the same molecule, the TGI (786-0 renal) was > 100 µM, the GI50 (SK-MEL-2 melanoma) was 2.69 µM and the TGI (SK-MEL-2 melanoma) was 9.77 µM. The GI50 (OVCAR-4 ovarian) was 3.86 µM, the TGI (OVCAR-4 ovarian) was > 100 µM and the GI50 (HCT-15 colon) was 5.51 µM. For the same molecule, the TGI (HCT-15 colon) was > 100 µM.
